{
  "source": "patent US4209529A",
  "about": "“Farnesyl carboxylic acid α-bisabolol ester, a mucosal stabilizing composition and method of manufacturing the same” (Kotobuki Seiyaku Company Limited, priority 1977, dated 1980)",
  "key": {"gastric epithelial cell": {"test_system": "gastric epithelial cell", "assay": "N-acetyl neuromatic acid (NANA) in gastric juice of pylorus-ligated rats (gastric epithelial cell stabilizing effect)", "type": "in vivo, rat (male Donryu strain)", "design": "unit not given here", "conditions": "200 mg./kg. orally, three times a day for 5 days, and after pylorus ligation, 8 h ligation", "protocol": "(§1) Male Donryu strain rats, weighing about 200 g., were divided into five groups. […] On the fifth day the animals were fasted for 24 hours, and submitted to pylorus ligation under light ether anethesia.\n(§2) The drugs were given just after pylorus ligation orally. After 8 hours of ligation, the rats were sacrificed and gastric juice was collected."}, "Chemical stability": {"assay": "Chemical stability", "type": "physicochemical"}, "[1]": {"test_system": "carrageenin-induced rat paw edema", "assay": "Carrageenin-induced rat paw edema", "type": "in vivo, rat (Wistar)", "conditions": "300 mg./kg. per os", "protocol": "To study the effect of the present compound on carrageenin-induced rat paw edema, the method of C. A. Winter (J. Pharmacol 141,369, (1963)) was applied. Wistar rats, weighing about 140 g. were used.\nThe present compound (III), α-bisabolol and farnesyl carboxylic acid were administered at a dosage of 300 mg./kg. (per os.) using a 1% CMC solution as the vehicle. The % inhibition was calculated as follows: [formula]"}, "[2]": {"assay": "LD50 by the up and down method", "type": "in vivo", "conditions": "mouse, in vivo, po; per os; observations for 24 hours", "protocol": "(§3) The LD50 value of the present compound in ddY strain mice was determined by the up and down method, with observations carried out for 24 hours.\n(§4) The test drugs used in this experiment were suspended in 1% methyl cellulose and were given orally."}, "ddY strain mice": {"test_system": "ddY strain mice", "assay": "LD50 by the up and down method", "type": "in vivo", "conditions": "per os; ratio of LD50", "protocol": "as §3, §4"}, "[3]": {"assay": "Other pharmacological experiment (mucosal stabilizing, anti-inflammative, wound-healing)", "conditions": "another experiment, no data shown"}, "gastric mucosa": {"test_system": "gastric mucosa", "assay": "Gastric errosion induced by 8 hours of pylorus ligation", "type": "in vivo, rat (male Donryu strain)", "conditions": "200 mg./kg. orally", "protocol": "as §1, §2"}, "5-HT induced ulcer": {"test_system": "5-HT induced ulcer", "assay": "5-HT induced ulcer", "type": "in vivo, rat", "protocol": "In the following experiments, the effects of test drugs on 5-HT induced ulcer were investigated. To induce the gastric lesion, rats were fasted for 24 hours before injection of 5-HT 30 mg./kg. S.C. The animals were sacrificed after 20 hours of 5-HT injections, and examined for lesion. The dose and route of administration of test drugs are the same as experiment 3. In the experiment, the area of lesions (mm.^2) were measured as the ulcer-index."}, "aspirin ulcer": {"test_system": "aspirin ulcer", "assay": "Aspirin-induced gastric mucosal lesion (aspirin ulcer)", "type": "in vivo", "conditions": "aspirin 100 mg./kg. per os", "protocol": "(§5) Each drug in Table 5, suspended with TWEEN 80 and 1% CMC solution, was given either intraduodenally immediately after pylorus ligation (aspirin ulcer) or orally (indomethacin ulcer) at the volume of 0.5 ml./100 g. Aspirin was given orally 10 min. after pylorus ligation. Indomethacin was given orally 10 min. after drug administration. All animals were sacrificed 7 hrs. after operation."}, "stress ulcer": {"test_system": "stress ulcer", "assay": "Stress ulcer", "type": "in vivo, rat (male Wistar strain)", "conditions": "100 mg./kg. per os, 30 minutes before the stress; 18 hours stress", "protocol": "To study the anti-ulcerative actions of the test drugs in experimental animals, the stress ulcer was selected. Male rats of the Wistar strain, weighing 200-250 g. were subjected to stress according to Takagi et. al. (Chem. Pharm. Bull 12,465. 1964). The four test drugs, the present compound (III), α-bisabolol (I), farnesyl carboxylic acid (II) and gefarnate were suspended in 1% methyl cellulose and were administered to the rats in a dose of 100 mg./kg. body weight per os, 30 minutes before the stress. The animals were placed in the stress box and immersed in water bath of 20°-25° C. to the level of the xiphoid process for 18 hours.\nAt the end of the stress the animals were removed from the stress box, killed by a blow on the head, and the stomach removed. The stomach was filled with 1% formalin solution, placed in 1% formalin solution for 15 minutes and was then cut open along the greater curvature and examined for lesions to obtain the ulcer index. The ulcer index was determined in six grades (0-5; 5 implying perforation of stomach)."}, "indomethacin ulcer": {"test_system": "indomethacin ulcer", "assay": "Indomethacin-induced gastric mucosal lesion (indomethacin ulcer)", "type": "in vivo", "conditions": "300 mg./kg. orally; indomethacin 20 mg./kg. per os", "protocol": "The preventive activity of new compound (III) against the formation of gastric mucosal lesion induced by the gastric ulcerogenic, anti-inflammatory drugs, indomethacin and aspirin was evaluated according to Okabe et. al. (Jap. J. Pharmacol. 24 169 p. 1974, Amer. J. Dig. Dis. 20 626 1975).\nas §5"}, "[4]": {"conditions": "cited from earlier work; for sedative or depressive activities: Ann. Pharm. France, 33, 229 ('75); for anti-inflammative and anti-ulcerative activities: literature"}},
  "data": [
    {"smiles": "CC(C)=CCCC(C)=CCCC(C)=CCC(=O)OC(C)(CCC=C(C)C)C1CC=C(C)CC1", "note": "(stereo not shown) [Compound (III), 4,8,12-1,5-dimethyl-1-(4-methyl-3-cyclohexenyl)-4-hexenyl ester of 4,8,12-trimethyl-3,7,11-tridecatrienoic acid]", "values": [
      {"measurement": "Amounts of NANA, bond", "setting": "gastric epithelial cell", "result": 71.8},
      {"measurement": "Amounts of NANA, free", "setting": "gastric epithelial cell", "result": 16.2},
      {"measurement": "Amounts of NANA, total", "setting": "gastric epithelial cell", "result": 88.9},
      {"measurement": "chemical stability", "setting": "Chemical stability", "result": "chemically stable"},
      {"measurement": "Increase in % of paw edema", "setting": "[1]", "result": 60.4, "unit": "%"},
      {"measurement": "Maximum % Inhibition", "setting": "[1]", "result": 39.6, "unit": "%"},
      {"measurement": "increased rate of paw-edema (fraction)", "setting": "[1]", "result": 0.604},
      {"measurement": "LD50 at 24 h", "setting": "[2]", "result": 24.1, "unit": "mg/kg"},
      {"measurement": "toxicity, times less than that of α-bisabolol and farnesyl carboxylic acid", "setting": "ddY strain mice", "result": "6-7 times"},
      {"measurement": "mucosal stabilizing, anti-inflammative and wound-healing activities", "setting": "[3]", "result": "possess mucosal stabilizing anti-inflammative, and wound-healing activities"},
      {"measurement": "damage to the gastric mucosa (gastric errosion)", "setting": "gastric mucosa", "result": "did not produce any damage to the gastric mucosa"},
      {"measurement": "inhibition of the occurrence of lesions", "setting": "5-HT induced ulcer; 100 mg./kg.", "result": "inhibits the occurrence of lesions completely"},
      {"measurement": "Ulcer Index (area of lesions)", "setting": "5-HT induced ulcer; 100 mg./kg. per os, 5-HT 30 mg./kg. S.C., 20 hours", "result": 0, "unit": "mm.^2"},
      {"measurement": "Inhibition", "setting": "aspirin ulcer; 100 mg./kg. intraduodenally", "result": 29.8, "unit": "%"},
      {"measurement": "Ulcer Index, means ± s.e.", "setting": "aspirin ulcer; 100 mg./kg. intraduodenally", "result": "21.4 ± 4.4", "unit": "mm.^2"},
      {"measurement": "Inhibition", "setting": "aspirin ulcer; 300 mg./kg. intraduodenally", "result": 44.6, "unit": "%"},
      {"measurement": "Ulcer Index, means ± s.e.", "setting": "aspirin ulcer; 300 mg./kg. intraduodenally", "result": "16.9 ± 3.6", "unit": "mm.^2"},
      {"measurement": "Inhibition", "setting": "aspirin ulcer; 1000 mg./kg. intraduodenally", "result": 65.2, "unit": "%"},
      {"measurement": "Ulcer Index, means ± s.e.", "setting": "aspirin ulcer; 1000 mg./kg. intraduodenally", "result": "10.6 ± 2.2", "unit": "mm.^2"},
      {"measurement": "score (ulcer index, grades 0-5)", "setting": "stress ulcer", "result": "1.5 ± 0.50"},
      {"measurement": "Inhibition", "setting": "indomethacin ulcer", "result": 42.6, "unit": "%"},
      {"measurement": "Ulcer Index, means ± s.e.", "setting": "indomethacin ulcer", "result": "26.4 ± 5.4", "unit": "mm.^2"}
    ]},
    {"smiles": "CC(C)=CCCC(C)=CCCC(C)=CCC(=O)O", "note": "[Farnesyl carboxylic acid, 4,8,12-trimethyl-3,7,11-tridecatrienoic acid]", "values": [
      {"measurement": "Amounts of NANA, bond", "setting": "gastric epithelial cell", "result": 80.6},
      {"measurement": "Amounts of NANA, free", "setting": "gastric epithelial cell", "result": 18.3},
      {"measurement": "Amounts of NANA, total", "setting": "gastric epithelial cell", "result": 98.6},
      {"measurement": "Increase in % of paw edema", "setting": "[1]", "result": 76.7, "unit": "%"},
      {"measurement": "Maximum % Inhibition", "setting": "[1]", "result": 23.3, "unit": "%"},
      {"measurement": "increased rate of paw-edema (fraction)", "setting": "[1]", "result": 0.767},
      {"measurement": "LD50 at 24 h", "setting": "[2]", "result": 4.26, "unit": "mg/kg"},
      {"measurement": "score (ulcer index, grades 0-5)", "setting": "stress ulcer", "result": "2.33 ± 0.84"}
    ]},
    {"smiles": "CC(C)=CCC/C(C)=C/CC/C(C)=C/CCC(=O)OC/C=C(\\C)CCC=C(C)C", "note": "[Gefarnate]", "values": [
      {"measurement": "Amounts of NANA, bond", "setting": "gastric epithelial cell", "result": 72.8},
      {"measurement": "Amounts of NANA, free", "setting": "gastric epithelial cell", "result": 20.8},
      {"measurement": "Amounts of NANA, total", "setting": "gastric epithelial cell", "result": 93.6},
      {"measurement": "Inhibition", "setting": "aspirin ulcer; 100 mg./kg. intraduodenally", "result": 22.3, "unit": "%"},
      {"measurement": "Ulcer Index, means ± s.e.", "setting": "aspirin ulcer; 100 mg./kg. intraduodenally", "result": "23.7 ± 3.2", "unit": "mm.^2"},
      {"measurement": "Inhibition", "setting": "aspirin ulcer; 300 mg./kg. intraduodenally", "result": 49.9, "unit": "%"},
      {"measurement": "Ulcer Index, means ± s.e.", "setting": "aspirin ulcer; 300 mg./kg. intraduodenally", "result": "16.2 ± 2.9", "unit": "mm.^2"},
      {"measurement": "Inhibition", "setting": "aspirin ulcer; 1000 mg./kg. intraduodenally", "result": 49.5, "unit": "%"},
      {"measurement": "Ulcer Index, means ± s.e.", "setting": "aspirin ulcer; 1000 mg./kg. intraduodenally", "result": "15.4 ± 4.4", "unit": "mm.^2"},
      {"measurement": "score (ulcer index, grades 0-5)", "setting": "stress ulcer", "result": "3.83 ± 0.73"}
    ]},
    {"smiles": "C=CC(C)=CCC=C(C)CCC=C(C)C", "note": "[farnesene]", "values": [
      {"measurement": "sedative or depressive activities", "setting": "[4]", "result": "sedative or depressive activities"},
      {"measurement": "anti-inflammative and anti-ulcerative activities", "setting": "[4]", "result": "anti-inflammative and anti-ulcerative activities"}
    ]},
    {"smiles": "CC(C)=CCCC(C)(O)C1CC=C(C)CC1", "note": "(stereo not drawn) [α-Bisabolol, α-bisabolol]", "values": [
      {"measurement": "Amounts of NANA, bond", "setting": "gastric epithelial cell", "result": 136.3},
      {"measurement": "Amounts of NANA, free", "setting": "gastric epithelial cell", "result": 12.4},
      {"measurement": "Amounts of NANA, total", "setting": "gastric epithelial cell", "result": 148.7},
      {"measurement": "sedative or depressive activities", "setting": "[4]", "result": "sedative or depressive activities"},
      {"measurement": "anti-inflammative and anti-ulcerative activities", "setting": "[4]", "result": "anti-inflammative and anti-ulcerative activities"},
      {"measurement": "Increase in % of paw edema", "setting": "[1]", "result": 88.1, "unit": "%"},
      {"measurement": "Maximum % Inhibition", "setting": "[1]", "result": 11.9, "unit": "%"},
      {"measurement": "increased rate of paw-edema (fraction)", "setting": "[1]", "result": 0.881},
      {"measurement": "LD50 at 24 h", "setting": "[2]", "result": 3.67, "unit": "mg/kg"},
      {"measurement": "score (ulcer index, grades 0-5)", "setting": "stress ulcer", "result": "4.0 ± 0.25"}
    ]}
  ]
}
